Where two headings read alike, the source gives them in different places.
Assays:
[1] = tested on: human pancreatic chymotrypsin; experiment: Specificity assay, chymotrypsin (pNA substrate); type: biochemical; conditions: read-out: Chymotrypsin activity in the specificity assays (IC50)
Protocol: (§1) The specificities of compounds of the present disclosure were determined against a variety of serine proteases: human neutrophil elastase (HNE), porcine pancreatic elastase (PPE) and human pancreatic chymotrypsin and one cysteine protease: human liver cathepsin B. In all cases, a 96-well plate format protocol using colorimetric p-nitroaniline (pNA) substrate or fluorometric Amino-Methyl-Coumarin (AMC) substrate, specific for each enzyme was used as described previously (PCT Patent Application No. WO 00/09543) with some modifications. All enzymes were purchased from Sigma or EMDbiosciences while the substrates were from Bachem.
(§2) Each pNA assay included a 2 h enzyme-inhibitor pre-incubation at room temperature followed by addition of substrate and hydrolysis to ˜15% conversion as measured on a Spectramax Pro microplate reader. The cathepsin B assay was initiated by adding substrate to a 10 min enzyme-inhibitor pre-incubation at room temperature, and the assay plate measured immediately using the Cytofluor Series 4000. Compound concentrations varied from 100 to 0.4 μM depending on their potency.
(§3) The final conditions for each assay were as follows: […]
(§4) The percentage of inhibition was calculated using the formula: [1−((UVinh−UVblank)/(UVctl−UVblank))]×100 […]

[2] = molecular target: T1, porcine pancreatic elastase (PPE) (Sus scrofa, UniProt P00772); experiment: Specificity assay, porcine pancreatic elastase (pNA substrate); type: biochemical; conditions: read-out: PPE activity in the specificity assays (IC50)
T1 construct: purchased Sigma or EMDbiosciences
T1 sequence (P00772 27-266): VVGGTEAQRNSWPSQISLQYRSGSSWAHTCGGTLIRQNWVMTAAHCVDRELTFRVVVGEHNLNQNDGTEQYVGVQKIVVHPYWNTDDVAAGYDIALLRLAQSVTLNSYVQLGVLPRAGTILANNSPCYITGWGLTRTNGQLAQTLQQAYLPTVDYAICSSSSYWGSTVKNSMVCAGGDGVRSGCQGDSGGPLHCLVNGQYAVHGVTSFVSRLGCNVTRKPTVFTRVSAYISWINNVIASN
Protocol: as §1, §2, §3, §4

[3] = tested on: HCV replicon in HUH-7 cells; experiment: HCV replicon FRET assay; type: cell-based, HCV strain 1b; conditions: Hepatitis C virus
From the text: An HCV replicon whole cell system was established as described by Lohmann V, Korner F, Koch J, Herian U, Theilmann L, Bartenschlager R., Science 285(5424):110-3 (1999). This system enabled us to evaluate the effects of our HCV Protease compounds on HCV RNA replication. Briefly, using the HCV strain 1b sequence described in the Lohmann paper (Assession number: AJ238799), an HCV cDNA was synthesized by Operon Technologies, Inc. (Alameda, Calif.), and the full-length replicon was then assembled in plasmid pGem9zf(+) (Promega, Madison, Wis.) using standard molecular biology techniques. The replicon consists of (i) the HCV 5′ UTR fused to the first 12 amino acids of the capsid protein, (ii) the neomycin phosphotransferase gene (neo), (iii) the IRES from encephalomyocarditis virus (EMCV), and (iv) HCV NS3 to NS5B genes and the HCV 3′ UTR. Plasmid DNAs were linearized with ScaI and RNA transcripts were synthesized in vitro using the T7 MegaScript transcription kit (Ambion, Austin, Tex.) according to manufacturer's directions. In vitro transcripts of the cDNA were transfected into the human hepatoma cell line, HUH-7. […] Resulting cell lines were characterized for positive and negative strand RNA production and protein production over time.
The HCV replicon FRET assay was developed to monitor the inhibitory effects of compounds described in the disclosure on HCV viral replication. HUH-7 cells, constitutively expressing the HCV replicon, were grown in Dulbecco's Modified Eagle Media (DMEM) (Gibco-BRL) containing 10% Fetal calf serum (FCS) (Sigma) and 1 mg/ml G418 (Gibco-BRL). Cells were seeded the night before (1.5×10^4 cells/well) in 96-well tissue-culture sterile plates. Compound and no compound controls were prepared in DMEM containing 4% FCS, 1:100 Penicillin/Streptomysin (Gibco-BRL), 1:100 L-glutamine and 5% DMSO in the dilution plate (0.5% DMSO final concentration in the assay). Compound/DMSO mixes were added to the cells and incubated for 4 days at 37° C. After 4 days, cells were first assessed for cytotoxicity using alamar Blue (Trek Diagnotstic Systems) for a CC50 reading. The toxicity of compound (CC50) was determined by adding 1/10th volume of alamar Blue to the media incubating the cells. After 4 hours, the fluorescence signal from each well was read, with an excitation wavelength at 530 nm and an emission wavelength of 580 nm, using the Cytofluor Series 4000 (Perspective Biosystems). Plates were then rinsed thoroughly with Phosphate-Buffered Saline (PBS) (3 times 150 μl). The cells were lysed with 25 μl of a lysis assay reagent containing an HCV protease substrate (5× cell Luciferase cell culture lysis reagent (Promega #El 53A) diluted to 1× with distilled water, NaCl added to 150 mM final, the FRET peptide substrate (as described for the enzyme assay above) diluted to 10 μM final from a 2 mM stock in 100% DMSO. […]. The plate was then placed into the Cytofluor 4000 instrument which had been set to 340 nm excitation/490 nm emission, automatic mode for 21 cycles and the plate read in a kinetic mode. EC50 determinations were carried out as described for the IC50 determinations.

human liver cathepsin B = molecular target: T2, human liver cathepsin B (Homo sapiens, UniProt P07858); experiment: Specificity assay, cathepsin B (AMC substrate); type: biochemical; conditions: read-out: Cathepsin B activity in the specificity assays (IC50)
T2 construct: purchased Sigma or EMDbiosciences; host or cells: human liver (as named)
Protocol: as §1, §2, §3, §4

## COc1c(O[C@@H]2C[C@H]3C(=O)N[C@]4(C(=O)NS(=O)(=O)C5CC5)C[C@H]4/C=C\CCCCC[C@H](NC(=O)OC(C)(C)C)C(=O)N3C2)ccc2c(Cl)nccc12 [Compound 3]
[1]
  IC50: > 100 µM
[2]
  IC50: > 100 µM
[3]; 96 h, HUH-7 replicon cells, 4 days, read-out: EC50 value in the replicon FRET assay
  EC50: 14.6 nM
[3]; Huh-7, HCV replicon, read-out: EC50 Activity Range
  EC50: < 100 nM
Human liver cathepsin B
  IC50: 100 µM

Source: patent US7741281B2, “Hepatitis C virus inhibitors” (Bristol-Myers Squibb Company, priority 2005, dated 2010)
